We go through two molecules from article PMC4824854, “Predictions of Cleavability of Calpain Proteolysis by Quantitative Structure-Activity Relationship Analysis Using Newly Determined Cleavage Sites and Catalytic Efficiencies of an Oligopeptide Array” (Molecular & Cellular Proteomics : MCP, 2016).

“Also recorded” adds a separate entry of the source.

For one assay, the system named is calpains. The conditions noted are these: cited from earlier work. The text has this:
This activity is mainly achieved by an ∼10^4-fold increase in the kcat without a significant change in the Km ([39]), by an unknown mechanism. Although this amidase-like calpain activity may be involved in as-yet-unknown physiological functions, there has been no further report on it.

In assay [1] the target is T1, C1 (Merck Millipore #208712) (Sus scrofa, UniProt P35750).
T1 construct: purchased Merck Millipore 208712
T1 sequence (P35750 1-714): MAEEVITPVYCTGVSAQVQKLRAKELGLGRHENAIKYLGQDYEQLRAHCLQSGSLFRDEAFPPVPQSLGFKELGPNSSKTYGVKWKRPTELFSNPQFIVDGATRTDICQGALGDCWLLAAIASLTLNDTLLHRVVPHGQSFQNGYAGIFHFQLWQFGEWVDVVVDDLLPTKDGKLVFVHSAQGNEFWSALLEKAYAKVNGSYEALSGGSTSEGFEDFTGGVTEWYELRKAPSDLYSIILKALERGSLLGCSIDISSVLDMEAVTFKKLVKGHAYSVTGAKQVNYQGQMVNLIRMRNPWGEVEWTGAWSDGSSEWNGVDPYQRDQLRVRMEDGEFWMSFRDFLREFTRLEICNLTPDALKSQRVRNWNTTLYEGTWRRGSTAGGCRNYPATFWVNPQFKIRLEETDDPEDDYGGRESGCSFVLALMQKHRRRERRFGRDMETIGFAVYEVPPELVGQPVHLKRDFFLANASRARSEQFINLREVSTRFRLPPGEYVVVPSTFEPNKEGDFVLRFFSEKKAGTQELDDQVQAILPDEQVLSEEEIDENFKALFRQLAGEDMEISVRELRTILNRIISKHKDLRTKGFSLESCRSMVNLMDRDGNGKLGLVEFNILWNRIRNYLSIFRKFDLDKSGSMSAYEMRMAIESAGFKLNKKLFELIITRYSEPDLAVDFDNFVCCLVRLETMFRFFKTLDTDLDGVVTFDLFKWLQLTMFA
T1 sequence (P04574 1-266 partner): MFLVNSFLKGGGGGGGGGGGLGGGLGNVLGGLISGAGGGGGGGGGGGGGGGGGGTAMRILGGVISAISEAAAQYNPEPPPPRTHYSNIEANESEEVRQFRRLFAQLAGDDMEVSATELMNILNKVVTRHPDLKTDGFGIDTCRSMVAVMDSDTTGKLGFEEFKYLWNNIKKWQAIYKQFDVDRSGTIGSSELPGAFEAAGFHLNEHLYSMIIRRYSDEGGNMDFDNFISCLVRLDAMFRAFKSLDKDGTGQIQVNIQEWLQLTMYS
Description: Cleavage sites in whole proteins by N-terminal sequencing and MS/MS. The conditions noted are these: C1 0.9 pmol, 100 mM Tris-HCl pH 7.5, 5 mM CaCl2, 30 °C, 20 min; peptide sequencing and LC-MS/MS. It counts as biochemical. As for the experimental part:
Human heart troponin T2 (Merck 648484–100UGA, ca. 30 pmol) and horse myoglobin (Sigma-Aldrich, M0630, ca. 60 pmol) were digested with C1 (Merck Millipore #208712, 0.9 pmol) in 50 μl of 100 mM Tris-HCl (pH 7.5), 1 mM DTT, and 5 mM CaCl2 at 30 °C for 20 min. The digested samples were directly separated by SDS-PAGE, and the proteolyzed fragments were then blotted onto a PVDF membrane and subjected to peptide sequencing analysis (AproScience Inc., Tokushima, Japan). For sequence analysis by MS, the same digestion reactions were performed, terminated by adding a 3-fold volume of 7% TCA followed by incubation on ice for 30 min, spun (20,000 × g, 2 °C, 10 min), and the supernatant was collected. An aliquot of the soluble fraction was desalted and concentrated to a few μl using Zip-Tip C-18, and analyzed by Sciex 5600^+ with the Eksigent nanoLC system. The samples were analyzed in triplicate, the data were merged, and the peptide sequences were identified using ProteinPilot (Ver. 4.5) and Swiss-Prot DB (2015_08; 549,008 sequences; 195,692,017 aars) using the default parameters.

Turning to RPKPQQFFGLM-NH2 [substance P], the “kcat/Km for hydrolysis of the NH2 group at the C terminus (amidase-like activity)” value with calpains is given as 10^6 M^−1s^−1.

B1: horse myoglobin: horse myoglobin (Sigma-Aldrich, M0630; P68082) (protein, UniProt P68082 2-154, looked up)
Myoglobin: GLSDGEWQQVLNVWGKVEADIAGHGQEVLIRLFTGHPETLEKFDKFKHLKTEAEMKASEDLKKHGTVVLTALGGILKKKGHHEAELKPLAQSHATKHKIPIKYLEFISDAIIHVLHSKHPGDFGADAQGAMTKALELFRNDIAAKYKELGFQG
As to B1, the “calpain cleavage sites detected in the whole protein” value in assay [1] is reported as “Lys^51/Thr^52; also recorded: Gly^152/Phe^153”.
